The values that follow are results of earlier work, collected in US20100197944A1, “DOCETAXEL PROCESS AND POLYMORPHS” (DR. REDDY'S LABORATORIES LIMITED, priority 2007, published 2010).

For the data set the following is noted: compared with anhydrous docetaxel.

The structures appear in SMILES notation.

`CC(=O)O[C@@]12CO[C@@H]1C[C@H](O)[C@@]1(C)C(=O)[C@H](O)C3=C(C)[C@@H](OC(=O)[C@H](O)[C@@H](NC(=O)OC(C)(C)C)c4ccccc4)C[C@@](O)([C@@H](OC(=O)c4ccccc4)[C@H]21)C3(C)C` [Docetaxel trihydrate, 4-acetoxy-2α-benzoyloxy-5β,20-epoxy-1,7β,10β-trihydroxy-9-oxo-tax-11-en-13-α-yl-(2R,3S)-3-tert-butoxycarbonylamino-2-hydroxy-3-phenylpropionate trihydrate]: the “Stability relative to the anhydrous product” value is listed as “substantially greater stability”.
